From paper PMC7948796, “Mammalian-like type II glutaminyl cyclases in Porphyromonas gingivalis and other oral pathogenic bacteria as targets for treatment of periodontitis” (The Journal of Biological Chemistry, 2021)
Values after ≈ are worked out from the molar mass of the structure shown. “Also recorded” adds a separate entry of the source.

Tests used:
[1] = system: Tannerella forsythia ATCC 43037; assay: MIC, micro-broth dilution; assay type: cell-based
Protocol: (§1) The micro-broth dilution technique was used to determine MICs. After subcultivation of bacterial strains and checking of purity, a defined inoculum was added to Wilkins–Chalgren broth (Oxoid) supplemented with 10 μg/ml β-NAD (Sigma-Aldrich) containing the inhibitor. A twofold dilution series was made, starting from 2 mM (final concentration) of the inhibitor. The growth control contained 10% of the inhibitor dissolvent at 2 mM (0.01% DMSO in a buffer with 50 mM TRIS, pH 8, and 50 mM NaCl). After an incubation period of 42 h (18 h for the aerobic S. gordonii), the growth of microbes was analyzed by visual analysis of the turbidity. MIC represents the lowest concentration without visible turbidity. All experiments were made using independent replicates.

[2] = system: Prevotella intermedia ATCC 25611; assay: MIC, micro-broth dilution; assay type: cell-based
Protocol: as §1

[3] = system: Streptococcus gordonii ATCC 10558; assay: MIC, micro-broth dilution; assay type: cell-based
Protocol: as §1

[4] = system: Fusobacterium nucleatum ATCC 25586; assay: MIC, micro-broth dilution; assay type: cell-based
Protocol: as §1

[5] = system: Porpyhromonas gingivalis M5-1-2 (clinical isolate); assay: MIC, micro-broth dilution; assay type: cell-based, Porphyromonas gingivalis
Protocol: as §1

[6] = system: Porpyhromonas gingivalis J374–1 (clinical isolate); assay: MIC, micro-broth dilution; assay type: cell-based, Porphyromonas gingivalis
Protocol: as §1

[7] = system: Porpyhromonas gingivalis ATCC 33277; assay: MIC, micro-broth dilution; assay type: cell-based, Porphyromonas gingivalis
Protocol: as §1

PgQC = PgQC (Porphyromonas gingivalis, UniProt Q7MT37); assay: QC inhibition assay with fluorogenic substrate H-Gln-AMC (Ki); assay type: biochemical; set-up: His-tag (pET28a, thrombin-cleavable) (N, cleaved yes); made in house; host or cells: E. coli Rosetta(DE3)pLysS; details: Ki value for PgQC
Protocol: Inhibitory constants were determined using concentrations of H-Gln-AMC varying from 1/4 KM to 2 KM and a final concentration of bacterial QC in a range between 25 nM and 50 nM. Progress curves were fitted to the general equation for competitive inhibition.

P. gingivalis J374-1 = assay: Growth curves, OD at 600 nm; assay type: cell-based, Porphyromonas gingivalis; details: clinical isolate J374-1, Fig. 6B
Protocol: (§2) In addition, we monitored the growth of two P. gingivalis strains ([…] and J374-1) by measuring the OD at 600 nm at different time points (it was not possible to make continuous measurements due to the anaerobic growth conditions of P. gingivalis), with the OD600 being recorded at 0 h, 16 h, 20 h, 24 h, and 42 h.

P. gingivalis ATCC 33277 = assay: Growth curves, OD at 600 nm; assay type: cell-based, Porphyromonas gingivalis; details: laboratory strain ATCC 33277, Fig. 6A
Protocol: as §2

HsQC = HsQC (Homo sapiens, UniProt Q16769); assay: QC inhibition assay with fluorogenic substrate H-Gln-AMC (Ki); assay type: biochemical; details: read-out: Ki value for HsQC
Chain of HsQC (Q16769 29-361): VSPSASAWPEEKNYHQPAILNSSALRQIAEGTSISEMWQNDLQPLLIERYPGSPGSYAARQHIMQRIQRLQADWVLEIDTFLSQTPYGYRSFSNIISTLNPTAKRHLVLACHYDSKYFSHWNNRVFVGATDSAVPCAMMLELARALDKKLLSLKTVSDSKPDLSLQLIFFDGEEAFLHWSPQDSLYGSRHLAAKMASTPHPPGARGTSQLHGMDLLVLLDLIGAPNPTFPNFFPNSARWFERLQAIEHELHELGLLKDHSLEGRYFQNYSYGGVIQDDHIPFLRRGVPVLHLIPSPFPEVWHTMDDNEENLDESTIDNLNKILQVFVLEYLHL

Chain of PgQC (Q7MT37 entry or part of it): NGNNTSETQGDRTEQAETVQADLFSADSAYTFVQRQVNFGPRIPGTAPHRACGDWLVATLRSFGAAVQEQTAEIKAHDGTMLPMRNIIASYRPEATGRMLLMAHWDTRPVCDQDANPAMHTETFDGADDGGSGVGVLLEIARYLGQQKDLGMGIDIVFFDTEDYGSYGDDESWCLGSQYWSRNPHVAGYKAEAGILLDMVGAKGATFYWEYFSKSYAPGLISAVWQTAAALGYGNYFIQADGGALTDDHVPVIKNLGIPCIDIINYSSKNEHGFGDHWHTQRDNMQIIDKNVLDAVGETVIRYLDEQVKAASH

Compound: Clc1ccc(CNc2cnc3nc[nH]c3c2)cc1 [S-316, N-(4-chlorobenzyl)imidazo[4,5-b]pyridin-6-amine]
- MIC in words ([1]; T. forsythia): submillimolar
- MIC ([1]; Tannerella forsythia, ATCC43037, T. forsythia ATCC 43037, 42 h): 500 µM (≈ 129 µg/mL)
- MIC in words ([2]; P. intermedia): submillimolar
- MIC ([2]; Prevotella intermedia, ATCC25611, P. intermedia ATCC 25611, 42 h): 125 µM (≈ 32.3 µg/mL)
- Growth attenuation ([3]; Gram-positive S. gordonii, no QC-like enzyme): did not result in growth attenuation
- MIC ([3]; Streptococcus gordonii, ATCC10558, S. gordonii ATCC 10558, 18 h): > 2000 µM
- MIC ([4]; Fusobacterium nucleatum, ATCC25586, F. nucleatum ATCC 25586, 42 h): > 2000 µM
- Growth attenuation ([4]; Gram-negative F. nucleatum, no QC-like enzyme): did not result in growth attenuation
- MIC in words ([5]; P. gingivalis clinical isolate): submillimolar
- MIC ([5]; Porphyromonas gingivalis, P. gingivalis M5-1-2 clinical isolate, 42 h): 250 µM (≈ 64.7 µg/mL)
- MIC in words ([6]; P. gingivalis clinical isolate): submillimolar
- MIC ([6]; Porphyromonas gingivalis, P. gingivalis J374–1 clinical isolate, 42 h): 500 µM (≈ 129 µg/mL)
- MIC in words ([7]; P. gingivalis laboratory strain): submillimolar
- MIC ([7]; Porphyromonas gingivalis, ATCC33277, P. gingivalis ATCC 33277, 42 h): 500 µM (≈ 129 µg/mL)
- Ki (PgQC): 0.053 ± 0.0011 µM
- P. gingivalis growth inhibition, dependence on concentration (P. gingivalis J374-1): dose-dependent; also recorded: concentration-dependent manner
- P. gingivalis growth inhibition, dependence on concentration (P. gingivalis ATCC 33277): dose-dependent; also recorded: concentration-dependent manner
- Ki (HsQC): 0.655 ± 0.027 µM
